We go through 23 molecules from patent US11447465B2, “Pharmaceutical compounds for treatment of medical disorders” (Achillion Pharmaceuticals, Inc., priority 2017, dated 2022).

Structures are written as SMILES.

Human Factor D, sequence (P00746 26-253): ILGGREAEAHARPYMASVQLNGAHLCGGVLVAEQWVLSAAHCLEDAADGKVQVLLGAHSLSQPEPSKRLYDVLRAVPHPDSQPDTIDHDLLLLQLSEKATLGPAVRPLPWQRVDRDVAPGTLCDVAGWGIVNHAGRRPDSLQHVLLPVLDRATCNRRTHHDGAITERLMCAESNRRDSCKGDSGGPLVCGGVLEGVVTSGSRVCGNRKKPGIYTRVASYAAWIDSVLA

For the experiment, the target named is Human Factor D (Homo sapiens (Human), UniProt P00746). Briefly: Human Factor D Assay. The following applies: Table 7; read-out: IC5 (Stars). It counts as biochemical. An outline of the steps:
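Serum-purified human factor D (80 nM final) preincubated with compound 5 min at room temperature in 50 mM Tris, 1 M NaCl, pH 7.5. Z-L-Lys-SBzl and DTNB added at 100 μM each; A405 followed every 30 s for 30 min. IC50 by nonlinear regression of rates.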
As to `COc1cc(CC(=O)N2[C@H](C(=O)Nc3nc(Br)ccc3C)C[C@@]3(C)C[C@@H]23)cc(-c2cnc(O)nc2)c1` [Compound T-101, (1R,3S,5R)-N-(6-bromo-3-methylpyridin-2-yl)-2-(2-(3-(2-hydroxypyrimidin-5-yl)-5-methoxyphenyl)acetyl)-5-methyl-2-azabicyclo[3.1.0]hexane-3-carboxamide], the IC50 was less than 1000 nM. With `Cc1ccc(Br)nc1NC(=O)[C@@H]1C[C@@]2(C)C[C@H]2N1C(=O)Cc1ccc2[nH]nc(C(=O)O)c2c1` [Compound T-102, 5-(2-((1R,3S,5R)-3-((6-bromo-3-methylpyridin-2-yl)carbamoyl)-5-methyl-2-azabicyclo[3.1.0]hexan-2-yl)-2-oxoethyl)-1H-indazole-3-carboxylic acid], the IC50 lay within 1000 to 10000 nM.

As for `CC(=O)c1nn(CC(=O)N2[C@H](C(=O)Nc3nc(Br)ccc3C)C[C@@]3(C)C[C@@H]23)c2cc3nc(C)sc3cc12` [Compound T-103, (1R,3S,5R)-2-(2-(3-acetyl-6-methyl-1H-thiazolo[5,4-f]indazol-1-yl)acetyl)-N-(6-bromo-3-methylpyridin-2-yl)-5-methyl-2-azabicyclo[3.1.0]hexane-3-carboxamide], the IC50 is less than 1000 nM. Take `Cc1ncc(-c2cc(CC(=O)N3C[C@H](F)C[C@H]3C(=O)Nc3cccc(-c4ccccc4Cl)c3F)cc(-c3cnc(C)nc3)c2)cn1` [Compound T-104, (2S,4R)-1-(2-(3,5-bis(2-methylpyrimidin-5-yl)phenyl)acetyl)-N-(2′-chloro-2-fluoro-[1,1′-biphenyl]-3-yl)-4-fluoropyrrolidine-2-carboxamide]: the IC50 was greater than 10000 nM.

In the case of `CC(=O)c1cc(CC(=O)N2C[C@H](F)C[C@H]2C(=O)Nc2cccc(Br)n2)cc(-c2cnc(C)nc2)c1` [Compound T-105, (2S,4R)-1-(2-(3-acetyl-5-(2-methylpyrimidin-5-yl)phenyl)acetyl)-N-(6-bromopyridin-2-yl)-4-fluoropyrrolidine-2-carboxamide], the IC50 was less than 1000 nM. Consider `CC(=O)c1cc(CC(=O)N2[C@H](C(=O)Nc3nc(Br)ccc3C)C[C@@]3(C)C[C@@H]23)cc(-c2cnc(C)nc2)c1` [Compound T-106, (1R,3S,5R)-2-(2-(3-acetyl-5-(2-methylpyrimidin-5-yl)phenyl)acetyl)-N-(6-bromo-3-methylpyridin-2-yl)-5-methyl-2-azabicyclo[3.1.0]hexane-3-carboxamide], for which the IC50 is less than 1000 nM. As for `CC(=O)c1cc(CC(=O)N2C[C@H](F)C[C@H]2C(=O)Nc2cccc(-c3ccccc3Cl)c2F)cc(-c2cnc(C)nc2)c1` [Compound T-107, (2S,4R)-1-(2-(3-acetyl-5-(2-methylpyrimidin-5-yl)phenyl)acetyl)-N-(2′-chloro-2-fluoro-[1,1′-biphenyl]-3-yl)-4-fluoropyrrolidine-2-carboxamide], the figure is less than 1000 nM; as for `COc1ncc(-c2cc(CC(=O)N3C[C@H](F)C[C@H]3C(=O)Nc3cccc(Br)n3)cc(-c3cnc(OC)nc3)c2)cn1` [Compound T-108, (2S,4R)-1-(2-(3,5-bis(2-methoxypyrimidin-5-yl)phenyl)acetyl)-N-(6-bromopyridin-2-yl)-4-fluoropyrrolidine-2-carboxamide], greater than 10000 nM; as for `COc1ncc(-c2cc(CC(=O)N3[C@H](C(=O)Nc4nc(Br)ccc4C)C[C@@]4(C)C[C@@H]34)cc(-c3cnc(OC)nc3)c2)cn1` [Compound T-109, (1R,3S,5R)-2-(2-(3,5-bis(2-methoxypyrimidin-5-yl)phenyl)acetyl)-N-(6-bromo-3-methylpyridin-2-yl)-5-methyl-2-azabicyclo[3.1.0]hexane-3-carboxamide], greater than 10000 nM. As for `COc1ncc(-c2cc(CC(=O)N3C[C@H](F)C[C@H]3C(=O)Nc3cccc(-c4ccccc4Cl)c3F)cc(-c3cnc(OC)nc3)c2)cn1` [Compound T-110, (2S,4R)-1-(2-(3,5-bis(2-methoxypyrimidin-5-yl)phenyl)acetyl)-N-(2′-chloro-2-fluoro-[1,1′-biphenyl]-3-yl)-4-fluoropyrrolidine-2-carboxamide], the figure is greater than 10000 nM; as for `Cc1ncc(-c2cc(CC(=O)N3C[C@H](F)C[C@H]3C(=O)Nc3cccc(Br)n3)cc(C(N)=O)c2)cn1` [Compound T-111, (2S,4R)-N-(6-bromopyridin-2-yl)-1-(2-(3-carbamoyl-5-(2-methylpyrimidin-5-yl)phenyl)acetyl)-4-fluoropyrrolidine-2-carboxamide], 1000 to 10000 nM.

In the case of `Cc1ncc(-c2cc(CC(=O)N3C[C@H](F)C[C@H]3C(=O)Nc3cccc(-c4ccccc4Cl)c3F)cc(C(N)=O)c2)cn1` [Compound T-112, (2S,4R)-1-(2-(3-carbamoyl-5-(2-methylpyrimidin-5-yl)phenyl)acetyl)-N-(2′-chloro-2-fluoro-[1,1′-biphenyl]-3-yl)-4-fluoropyrrolidine-2-carboxamide], the IC50 is less than 1000 nM. As for `Cc1ncc(-c2cc(CC(=O)N3[C@H](C(=O)Nc4nc(Br)ccc4C)C[C@@]4(C)C[C@@H]34)cc(C(N)=O)c2)cn1` [Compound T-113, (1R,3S,5R)-N-(6-bromo-3-methylpyridin-2-yl)-2-(2-(3-carbamoyl-5-(2-methylpyrimidin-5-yl)phenyl)acetyl)-5-methyl-2-azabicyclo[3.1.0]hexane-3-carboxamide], the figure is 1000 to 10000 nM; as for `Cc1ncc(-c2cc(C#N)cc(CC(=O)N3C[C@H](F)C[C@H]3C(=O)Nc3cccc(Br)n3)c2)cn1` [Compound T-114, (2S,4R)-N-(6-bromopyridin-2-yl)-1-(2-(3-cyano-5-(2-methylpyrimidin-5-yl)phenyl)acetyl)-4-fluoropyrrolidine-2-carboxamide], 1000 to 10000 nM; as for `Cc1ncc(-c2cc(C#N)cc(CC(=O)N3[C@H](C(=O)Nc4nc(Br)ccc4C)C[C@@]4(C)C[C@@H]34)c2)cn1` [Compound T-115, (1R,3S,5R)-N-(6-bromo-3-methylpyridin-2-yl)-2-(2-(3-cyano-5-(2-methylpyrimidin-5-yl)phenyl)acetyl)-5-methyl-2-azabicyclo[3.1.0]hexane-3-carboxamide], 1000 to 10000 nM.

Turning to `Cc1ncc(-c2cc(C#N)cc(CC(=O)N3C[C@H](F)C[C@H]3C(=O)Nc3cccc(-c4ccccc4Cl)c3F)c2)cn1` [Compound T-116, (2S,4R)-N-(2′-chloro-2-fluoro-[1,1′-biphenyl]-3-yl)-1-(2-(3-cyano-5-(2-methylpyrimidin-5-yl)phenyl)acetyl)-4-fluoropyrrolidine-2-carboxamide], the IC50 is less than 1000 nM. `Cc1ncc(-c2cc(CC(=O)N3[C@H](C(=O)Nc4nc(Br)ccc4C)C[C@@]4(C)C[C@@H]34)cc(-c3cnc(O)nc3)c2)cn1` [Compound T-117, (1R,3S,5R)-N-(6-bromo-3-methylpyridin-2-yl)-2-(2-(3-(2-hydroxypyrimidin-5-yl)-5-(2-methylpyrimidin-5-yl)phenyl)acetyl)-5-methyl-2-azabicyclo[3.1.0]hexane-3-carboxamide]: the IC50 was greater than 10000 nM. As for `Cc1ncc(-c2cc(CC(=O)N3C[C@H](F)C[C@H]3C(=O)Nc3cccc(-c4ccccc4Cl)c3F)cc(-c3cnc(O)nc3)c2)cn1` [Compound T-118, (2S,4R)-N-(2′-chloro-2-fluoro-[1,1′-biphenyl]-3-yl)-4-fluoro-1-(2-(3-(2-hydroxypyrimidin-5-yl)-5-(2-methylpyrimidin-5-yl)phenyl)acetyl)pyrrolidine-2-carboxamide], the figure is greater than 10000 nM. With `Cc1ncc(-c2cc(CC(=O)N3C[C@H](F)C[C@H]3C(=O)Nc3cccc(-c4ccccc4Cl)c3F)cc(OCC(=O)O)c2)cn1` [Compound T-120, 2-(3-(2-((2S,4R)-2-((2′-chloro-2-fluoro-[1,1′-biphenyl]-3-yl)carbamoyl)-4-fluoropyrrolidin-1-yl)-2-oxoethyl)-5-(2-methylpyrimidin-5-yl)phenoxy)acetic acid], the IC50 fell in the range of 1000 to 10000 nM. The figure for `C#CCNC(=O)c1nn(CC(=O)N2[C@H](C(=O)Nc3nc(Br)ccc3C)C[C@@]3(C)C[C@@H]23)c2ccc(-c3cnc(C)nc3)cc12` [Compound T-121, 1-(2-((1R,3S,5R)-3-((6-bromo-3-methylpyridin-2-yl)carbamoyl)-5-methyl-2-azabicyclo[3.1.0]hexan-2-yl)-2-oxoethyl)-5-(2-methylpyrimidin-5-yl)-N-(prop-2-yn-1-yl)-1H-indazole-3-carboxamide] is less than 1000 nM; for `Cc1ccc(Br)nc1NC(=O)[C@@H]1C[C@@]2(CNC(=O)COCCOCCNC(=O)COCCOCCNC(=O)CC[C@H](NC(=O)CCCCCCCCCCCCCCCCC(=O)O)C(=O)O)C[C@H]2N1C(=O)Cn1nc(C(N)=O)c2ccc(C(=O)NS(=O)(=O)C3CC3)cc21` [Compound T-126, (S)-1-((1R,3S,5R)-3-((6-bromo-3-methylpyridin-2-yl)carbamoyl)-2-(2-(3-carbamoyl-6-((cyclopropylsulfonyl)carbamoyl)-1H-indazol-1-yl)acetyl)-2-azabicyclo[3.1.0]hexan-5-yl)-24-carboxy-3,12,21,26-tetraoxo-5,8,14,17-tetraoxa-2,11,20,25-tetraazatritetracontan-43-oic acid] it is less than 1000 nM. As for `CC(=O)c1nn(CC(=O)N2[C@H](C(=O)Nc3nc(Br)ccc3C)C[C@@]3(CNC(=O)COCCOCCNC(=O)COCCOCCNC(=O)CCCCCCCCCCCCCCCCC(=O)O)C[C@@H]23)c2ccc(OC(=O)NC3CC3)cc12` [Compound T-128, 1-((1R,3S,5R)-2-(2-(3-acetyl-5-((cyclopropylcarbamoyl)oxy)-1H-indazol-1-yl)acetyl)-3-((6-bromo-3-methylpyridin-2-yl)carbamoyl)-2-azabicyclo[3.1.0]hexan-5-yl)-3,12,21-trioxo-5,8,14,17-tetraoxa-2,11,20-triazaoctatriacontan-38-oic acid], the IC50 was less than 1000 nM.

With `COC(=O)c1cc2c(cc1-c1cnc(C)nc1)c(C(C)=O)nn2CC(=O)N1[C@H](C(=O)Nc2nc(Br)ccc2C)C[C@@]2(C)C[C@@H]12` [Compound T-129, methyl 3-acetyl-1-(2-((1R,3S,5R)-3-((6-bromo-3-methylpyridin-2-yl)carbamoyl)-5-methyl-2-azabicyclo[3.1.0]hexan-2-yl)-2-oxoethyl)-5-(2-methylpyrimidin-5-yl)-1H-indazole-6-carboxylate], the IC50 was less than 1000 nM.
